{"source": "patent US7875621B2", "about": "“Substituted 2-alkyl quinazolinone derivatives as PARP inhibitors” (Janssen Pharmaceutica NV, priority 2004, dated 2011)", "key": {"[1]": {"test_system": "infarct size in the heart", "settings": "rabbits, cited from earlier work"}, "colitis": {"test_system": "colitis", "settings": "rats, colitis by intraluminal trinitrobenzene sulfonic acid in 50% ethanol; cited from earlier work"}, "TANK-2 enzyme": {"target": "T1, TANK-2 enzyme (Homo sapiens, UniProt Q9H2K2)", "T1 construct": "inferred from capture on Ni-coated flash plate; made in house", "T1 sequence (Q9H2K2 1-1166)": "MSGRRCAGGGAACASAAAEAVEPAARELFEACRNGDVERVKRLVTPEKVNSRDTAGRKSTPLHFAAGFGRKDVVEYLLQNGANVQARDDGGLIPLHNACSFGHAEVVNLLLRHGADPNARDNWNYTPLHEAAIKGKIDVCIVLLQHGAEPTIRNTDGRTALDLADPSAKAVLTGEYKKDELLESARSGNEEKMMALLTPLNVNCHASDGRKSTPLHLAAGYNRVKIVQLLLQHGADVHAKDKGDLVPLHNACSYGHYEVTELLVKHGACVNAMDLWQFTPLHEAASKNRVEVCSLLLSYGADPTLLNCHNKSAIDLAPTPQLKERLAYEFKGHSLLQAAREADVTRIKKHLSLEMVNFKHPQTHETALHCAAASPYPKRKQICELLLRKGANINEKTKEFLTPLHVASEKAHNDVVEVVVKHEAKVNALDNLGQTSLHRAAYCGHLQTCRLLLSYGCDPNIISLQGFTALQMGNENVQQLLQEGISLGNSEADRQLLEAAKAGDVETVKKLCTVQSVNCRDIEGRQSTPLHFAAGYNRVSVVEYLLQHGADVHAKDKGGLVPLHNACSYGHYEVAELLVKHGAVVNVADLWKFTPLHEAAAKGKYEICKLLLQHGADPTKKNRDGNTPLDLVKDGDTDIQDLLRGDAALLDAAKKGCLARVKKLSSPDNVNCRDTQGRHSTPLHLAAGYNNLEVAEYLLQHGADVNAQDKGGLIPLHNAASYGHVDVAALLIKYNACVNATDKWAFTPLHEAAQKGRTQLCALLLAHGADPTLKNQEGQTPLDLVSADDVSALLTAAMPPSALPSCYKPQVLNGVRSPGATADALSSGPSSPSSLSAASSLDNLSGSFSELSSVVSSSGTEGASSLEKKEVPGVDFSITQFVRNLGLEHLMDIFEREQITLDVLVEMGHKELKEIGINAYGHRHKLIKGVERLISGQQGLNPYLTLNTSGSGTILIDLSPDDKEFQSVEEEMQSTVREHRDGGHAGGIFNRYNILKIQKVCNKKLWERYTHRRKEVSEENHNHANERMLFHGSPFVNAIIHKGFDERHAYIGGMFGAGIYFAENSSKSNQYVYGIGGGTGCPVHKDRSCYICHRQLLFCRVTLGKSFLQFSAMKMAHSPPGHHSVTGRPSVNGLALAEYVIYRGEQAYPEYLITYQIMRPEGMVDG", "assay": "In vitro scintillation proximity assay (SPA) for TANK-2 inhibitory activity", "format": "biochemical", "settings": "auto-poly(ADP-ribosyl)ation, [3H]-NAD+, 96- or 384-well Ni Flash plates; read-out: in vitro SPA TANK-2 pIC50 (converted)", "method": "In Vitro Scintillation Proximity Assay (SPA) for TANK-2 Inhibitory Activity\nCompounds of the present invention were tested in an in vitro assay based on SPA technology with Ni Flash plates (96 or 384 well).\nIn principle, the assay relies upon SPA technology for the detection of auto-poly(ADP-ribosyl)ation of TANK-2 protein using [^3H]-nicotinamide adenine dinucleotide ([^3H]-NAD^+) as ADP-ribosyl donor.\nA stock solution of [^3H]-NAD^+/NAD was made by adding 64.6 μl of [^3H]-NAD^+ (0.1 mCi/ml, supplier: Perkin Elmer) and 46.7 μl NAD-stock (10.7 mM, stored at −20° C., supplier Roche) to 1888.7 μl assay buffer (60 mM Tris/HCl, pH 7.4; 0.9 mM DTT; 6 mM MgCl2). The TANK-2 enzyme was produced as described in EP1238063. 60 μl of assay buffer, together with 1 μl of compound in DMSO, 20 μl of [^3H]-NAD^+/NAD and 20 μl of TANK-2 enzyme (final concentration 6 μg/ml) was added per well into a 96-well Ni-coated flash plate (Perkin Elmer). After incubation of the mixture for 120 min. at room temperature, the reaction was terminated by adding 60 μl of stopsolution (42.6 mg NAD in 6 ml H2O). The plates were covered with a plate sealer and placed in a TopCountNXT™ (Packard) for scintillation counting. Values were expressed as counts per minute (cpm). For each experiment, controls (containing TANK-2 enzyme and DMSO without compound), a blank incubation (containing DMSO but no TANK-2 enzyme or compound) and samples (containing TANK-2 enzyme and compound dissolved in DMSO) were run in parallel. All compounds tested were dissolved and eventually further diluted in DMSO. In first instance, compounds were tested at a concentration of 10^−5M. […] In each test, the blank value was subtracted from both the control and the sample values. The control sample represented maximal TANK-2 enzyme activity. For each sample, the amount of cpm was expressed as a percentage of the mean cpm value of the controls. When appropriate, IC50-values (concentration of the drug, needed to reduce the TANK-2 enzyme activity to 50% of the control) were computed using linear interpolation between the experimental points just above and below the 50% level. Herein the effects of test compounds are expressed as pIC50 (the negative log value of the IC50-value). As reference compounds, 3-aminobenzamide and 4-amino-1,8-naphtalimide were included to validate the SPA assay. Herein the assay was described using 96-well plates. In the assay using 384-well plates the same final concentrations were used and volumes were adapted."}}}
{"compound": "Oc1cccc2c(O)nccc12", "note": "[1,5-dihydroxyisoquinoline]", "values": [{"measurement": "reduction in infarct size", "setting": "[1]; single injection 1 mg/kg", "result": "38-48%"}]}
{"compound": "NC(=O)c1cccc(N)c1", "note": "[3-amino-benzamide]", "values": [{"measurement": "effect on inflammatory response and distal colon", "setting": "colitis", "result": "reduced the inflammatory response"}, {"measurement": "reduction in infarct size in the heart", "setting": "[1]; single injection 10 mg/kg, one minute before occlusion or before reperfusion", "result": "32-42%"}]}
{"compound": "O=C1NC(CCN2CCC(C(=O)c3ccc(F)cc3)CC2)Nc2ccccc21", "note": "(stereo not shown) [Compound 1]", "values": [{"measurement": "IC50", "setting": "TANK-2 enzyme", "result": "> 10", "unit": "µM"}]}
